The results in this text go back to patent US9840478B2 (MERCK SHARP & DOHME CORP., priority 2013, dated 2017).

The experiment has as its system HIV-1 (H9IIIB strain). In words: Cell-based HIV infection assay using a reporter (Cell-Based), MT4-GFP cells. The conditions noted are these: Human immunodeficiency virus 1, MT4-GFP cells infected with HIV-1 H9IIIB; 50% normal human serum; mean of at least two independent experiments; read-out: Cell-based IP. The gist of the method:
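IC50 from 4-parameter dose-response of % viral growth inhibition, using the 48 h/24 h infected-cell ratio scaled between DMSO and a protease/integrase/NNRTI triple-drug control. Assay used MT4 cells with HIV-LTR-GFP reporter, pre-infected 24 h with HIV-1 H9IIIB, in 50% normal human serum.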
As to `C[C@@H]1CNC[C@H](CCc2c(F)cccc2NC(=O)[C@@H](N)C(c2cccc(F)c2)c2cccc(F)c2)N1S(=O)(=O)c1ccccc1` [Example 133, 3-fluoro-N-(3-fluoro-2-{2-[(2S,6R)-6-methyl-1-(phenylsulfonyl)piperazin-2-yl]ethyl}phenyl)-β-(3-fluorophenyl)-L-phenylalaninamide], the IC50 came to 55 nM.

For the compound `COC(=O)N[C@H](C(=O)Nc1cccc(F)c1CC[C@H]1CNC[C@@H](C)N1S(=O)(=O)c1ccccc1)C(c1cccc(F)c1)c1cccc(F)c1` [Example 134, 3-fluoro-N-(3-fluoro-2-{2-[(2S,6R)-6-methyl-1-(phenylsulfonyl)piperazin-2-yl]ethyl}phenyl)-β-(3-fluorophenyl)-Nα-(methoxycarbonyl)-L-phenylalaninamide], the IC50 was 63 nM.

As for `C[C@@H]1CNC[C@H](CCc2c(F)cncc2NC(=O)[C@@H](N)[C@@H](c2ccc(Cl)cc2)c2cccc(F)c2)N1S(=O)(=O)c1ccccc1` [Example 135, (βS)-4-chloro-N-(5-fluoro-4-{2-[(2S,6R)-6-methyl-1-(phenylsulfonyl)piperazin-2-yl]ethyl}pyridin-3-yl)-β-(3-fluorophenyl)-L-phenylalaninamide], the IC50 turned out to be 23 nM.

Turning to `COC(=O)N[C@H](C(=O)Nc1cncc(F)c1CC[C@H]1CNC[C@H](C)N1S(=O)(=O)c1ccc(OC)cc1)[C@@H](c1ccc(Cl)cc1)C1CCOCC1` [Example 136, (βR)-4-chloro-N-[5-fluoro-4-(2-{(2S,6S)-1-[(4-methoxyphenyl)sulfonyl]-6-methylpiperazin-2-yl}ethyl)pyridin-3-yl]-Nα-(methoxycarbonyl)-β-(tetrahydro-2H-pyran-4-yl)-L-phenylalaninamide], the IC50 is 10 nM.

For `C[C@H]1CNC[C@H](CCc2c(F)cccc2NC(=O)[C@@H](N)C(c2cccc(F)c2)c2cccc(F)c2)N1S(=O)(=O)c1ccccc1Cl` [Example 137, N-[2-(2-{(2S,6S)-1-[(2-chlorophenyl)sulfonyl]-6-methylpiperazin-2-yl}ethyl)-3-fluorophenyl]-3-fluoro-β-(3-fluorophenyl)-L-phenylalaninamide], the IC50 was determined as 240 nM.

Consider `COC(=O)N[C@H](C(=O)Nc1cccc(F)c1CC[C@H]1CNC[C@H](C)N1S(=O)(=O)c1ccccc1Cl)C(c1cccc(F)c1)c1cccc(F)c1` [Example 138, N-[2-(2-{(2S,6S)-1-[(2-chlorophenyl)sulfonyl]-6-methylpiperazin-2-yl}ethyl)-3-fluorophenyl]-3-fluoro-β-(3-fluorophenyl)-Nα-(methoxycarbonyl)-L-phenylalaninamide], for which the IC50 came to 150 nM.

For the compound `COC(=O)N[C@H](C(=O)Nc1cccc(F)c1CC[C@H]1CNC[C@H](C)N1S(C)(=O)=O)[C@@H](c1ccc(Cl)cc1)C1CCOCC1` [Example 139, (βR)-4-chloro-N-(3-fluoro-2-{2-[(2S,6S)-6-methyl-1-(methylsulfonyl)piperazin-2-yl]ethyl}phenyl)-Nα-(methoxycarbonyl)-β-(tetrahydro-2H-pyran-4-yl)-L-phenylalaninamide], the IC50 amounted to 36 nM.

On to `CC(C)[C@H](c1ccc(Cl)cc1)[C@H](N)C(=O)Nc1cccc(F)c1CC[C@H]1CNC[C@H](C)N1S(=O)(=O)c1ccc(OC(F)(F)F)cc1` [Example 140, (βR)-4-chloro-N-(3-fluoro-2-{2-[(2S,6S)-6-methyl-1-{[4-(trifluoromethoxy)phenyl]sulfonyl}piperazin-2-yl]ethyl}phenyl)-β-(1-methylethyl)-L-phenylalaninamide], for which the IC50 came out at 250 nM.

As to `C[C@H]1CNC[C@H](CCc2c(F)cccc2NC(=O)[C@@H](N)[C@@H](c2ccc(Cl)cc2)C2CCOCC2)N1S(=O)(=O)C1CC1` [Example 141, (βR)-4-chloro-N-(2-{2-[(2S,6S)-1-(cyclopropylsulfonyl)-6-methylpiperazin-2-yl]ethyl}-3-fluorophenyl)-β-(tetrahydro-2H-pyran-4-yl)-L-phenylalaninamide], the IC50 worked out at 77 nM.

For the compound `COC(=O)N[C@H](C(=O)Nc1cccc(F)c1CC[C@H]1CNC[C@H](C)N1S(=O)(=O)c1ccc(OC(F)(F)F)cc1)[C@@H](c1ccc(Cl)cc1)C(C)C` [Example 142, (βR)-4-chloro-N-(3-fluoro-2-{2-[(2S,6S)-6-methyl-1-{[4-(trifluoromethoxy)phenyl]sulfonyl}piperazin-2-yl]ethyl}phenyl)-Nα-(methoxycarbonyl)-β-(1-methylethyl)-L-phenylalaninamide], the IC50 is 84 nM.

`COC(=O)N[C@H](C(=O)Nc1cccc(F)c1CC[C@H]1CNC[C@H](C)N1S(=O)(=O)c1ccccc1Cl)[C@@H](c1ccc(Cl)cc1)C(C)C` [Example 143, (βR)-4-chloro-N-[2-(2-{(2S,6S)-1-[(2-chlorophenyl)sulfonyl]-6-methylpiperazin-2-yl}ethyl)-3-fluorophenyl]-Nα-(methoxycarbonyl)-β-(1-methylethyl)-L-phenylalaninamide]: the IC50 came out at 570 nM.

In the case of `COC(=O)N[C@H](C(=O)Nc1cccc(F)c1CC[C@H]1CNC[C@H](C)N1S(=O)(=O)C1CC1)[C@@H](c1ccc(Cl)cc1)C(C)C` [Example 144, (βR)-4-chloro-N-(2-{2-[(2S,6S)-1-(cyclopropylsulfonyl)-6-methylpiperazin-2-yl]ethyl}-3-fluorophenyl)-Nα-(methoxycarbonyl)-β-(1-methylethyl)-L-phenylalaninamide], the IC50 came to 93 nM.

Consider `COC(=O)N[C@H](C(=O)Nc1cccc(F)c1CC[C@H]1CNC[C@@H](C)N1S(=O)(=O)C1CC1)[C@@H](c1ccc(Cl)cc1)C(C)C` [Example 145, (βR)-4-chloro-N-(2-{2-[(2S,6R)-1-(cyclopropylsulfonyl)-6-methylpiperazin-2-yl]ethyl}-3-fluorophenyl)-Nα-(methoxycarbonyl)-β-(1-methylethyl)-L-phenylalaninamide], for which the IC50 is 170 nM.

Regarding `COC(=O)N[C@H](C(=O)Nc1cccc(F)c1CC[C@H]1CNC[C@@H](C)N1S(C)(=O)=O)[C@@H](c1ccc(F)cc1)C1CCOCC1` [Example 146, (βR)-4-fluoro-N-(3-fluoro-2-{2-[(2S,6R)-6-methyl-1-(methylsulfonyl)piperazin-2-yl]ethyl}phenyl)-Nα-(methoxycarbonyl)-β-(tetrahydro-2H-pyran-4-yl)-L-phenylalaninamide], the IC50 stood at 72 nM.

As to `CCOC(=O)N[C@H](C(=O)Nc1cccc(F)c1CC[C@H]1CNC[C@@H](C)N1S(=O)(=O)c1ccccc1)[C@@H](c1ccc(Cl)cc1)C1CCOCC1` [Example 148, (βR)-4-chloro-Nα-(ethoxycarbonyl)-N-(3-fluoro-2-{2-[(2S,6R)-6-methyl-1-(phenylsulfonyl)piperazin-2-yl]ethyl}phenyl)-β-(tetrahydro-2H-pyran-4-yl)-L-phenylalaninamide], the IC50 worked out at 8.8 nM.

`COc1ccc([C@H](c2ccc(Cl)cc2)[C@H](N)C(=O)Nc2cccc(F)c2CC[C@H]2CNC[C@H](C)N2S(=O)(=O)C2CC2)cn1` [Example 150, (βS)-4-chloro-N-(2-{2-[(2S,6S)-1-(cyclopropylsulfonyl)-6-methylpiperazin-2-yl]ethyl}-3-fluorophenyl)-β-(6-methoxypyridin-3-yl)-L-phenylalaninamide]: the IC50 was found to be 26 nM.

As for `COC(=O)N[C@H](C(=O)Nc1cccc(F)c1CC[C@H]1CNC[C@H](C)N1S(=O)(=O)C1CC1)[C@@H](c1ccc(Cl)cc1)c1ccc(OC)nc1` [Example 151, (βS)-4-chloro-N-(2-{2-[(2S,6S)-1-(cyclopropylsulfonyl)-6-methylpiperazin-2-yl]ethyl}-3-fluorophenyl)-Nα-(methoxycarbonyl)-β-(6-methoxypyridin-3-yl)-L-phenylalaninamide], the IC50 worked out at 17 nM.

Consider `COC(=O)N[C@H](C(=O)Nc1cccc(F)c1CC[C@H]1CNC[C@@H](C)N1S(=O)(=O)C1CC1)[C@@H](c1ccc(Cl)cc1)c1ccc(OC)nc1` [Example 153, (βS)-4-chloro-N-(2-{2-[(2S,6R)-1-(cyclopropylsulfonyl)-6-methylpiperazin-2-yl]ethyl}-3-fluorophenyl)-Nα-(methoxycarbonyl)-β-(6-methoxypyridin-3-yl)-L-phenylalaninamide], for which the IC50 was 28 nM.

As to `C[C@H]1CNC[C@H](CCc2c(F)cccc2NC(=O)[C@@H](N)[C@H](c2cccc(F)c2)c2cccc(Cl)c2)N1S(=O)(=O)c1ccccc1` [Example 154, (βR)-3-chloro-N-(3-fluoro-2-{2-[(2S,6S)-6-methyl-1-(phenylsulfonyl)piperazin-2-yl]ethyl}phenyl)-β-(3-fluorophenyl)-L-phenylalaninamide], the IC50 amounted to 65 nM.

As to `COC(=O)N[C@H](C(=O)Nc1cccc(F)c1CC[C@H]1CNC[C@H](C)N1S(=O)(=O)c1ccccc1)[C@H](c1cccc(F)c1)c1cccc(Cl)c1` [Example 155, (βR)-3-chloro-N-(3-fluoro-2-{2-[(2S,6S)-6-methyl-1-(phenylsulfonyl)piperazin-2-yl]ethyl}phenyl)-β-(3-fluorophenyl)-Nα-(methoxycarbonyl)-L-phenylalaninamide], the IC50 was determined as 67 nM.

Consider `COc1ccc(S(=O)(=O)N2[C@@H](CCc3c(F)cccc3NC(=O)[C@@H](N)C(c3cccc(F)c3)c3cccc(F)c3)CNC[C@@H]2C)cc1` [Example 156, 3-fluoro-N-[3-fluoro-2-(2-{(2S,6S)-1-[(4-methoxyphenyl)sulfonyl]-6-methylpiperazin-2-yl}ethyl)phenyl]-β-(3-fluorophenyl)-L-phenylalaninamide], for which the IC50 is 14 nM.

Turning to `COC(=O)N[C@H](C(=O)Nc1cccc(F)c1CC[C@H]1CNC[C@H](C)N1S(=O)(=O)c1ccc(OC)cc1)C(c1cccc(F)c1)c1cccc(F)c1` [Example 157, 3-fluoro-N-[3-fluoro-2-(2-{(2S,6S)-1-[(4-methoxyphenyl)sulfonyl]-6-methylpiperazin-2-yl}ethyl)phenyl]-β-(3-fluorophenyl)-Nα-(methoxycarbonyl)-L-phenylalaninamide], the IC50 came out at 7.3 nM.
